Holding throughout (assay): NCI tumour cell line growth inhibition, 48 h
Experiment [1] deals with COLO 205 colon.
Experiment [2] deals with HL-60(TB) leukemia.
Experiment [3] relates to M14 melanoma.
The subject of experiment [4] is NCI-H226 lung.
Experiment [5] deals with OVCAR-5 ovarian.
The subject of experiment [6] is OVCAR-8 ovarian.
The subject of experiment [7] is SF-539 CNS.
Experiment [8] deals with SN12C renal.
Experiment [9] deals with T-47D breast.
The test system of experiment [10] is UO-31 renal.

For eleven compounds, GI50 and TGI results are on record in PubChem BioAssay (NCI).

Molecules are shown by their SMILES. Several values for one entry are separate records, joined by “and”; a condition that tells them apart may be missing. Identical values can stand only once.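 Growth conditions: 96-well plates. Treatment: test compound, 48 hours, 5 concentrations. Analysis: linear interpolation between bracketing concentrations; unreached endpoints set to highest concentration. GI50 is the concentration that inhibits growth by half. At the TGI there is no net growth.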

Turning to `Cc1c(C(=O)Nc2ccc(N3C[C@@H](C)O[C@@H](C)C3)nc2)cccc1-c1ccc(OC(F)(F)F)cc1`, the GI50 in experiment [1] is 13.5 µM and 19.9 µM; in [2] it was 7.25 µM and 22.7 µM; in experiment [3], 14.4 µM and 19.3 µM; in experiment [4], 8.11 µM and 13.8 µM; in experiment [5], 15.7 µM and 19.6 µM; in experiment [6] it was 7.9 µM and 10.8 µM. Besides, the GI50 in experiment [7] is 6.74 µM and 10.5 µM; in experiment [8], 10.8 µM and 14.1 µM; in experiment [9], 2.69 µM and 2.41 µM; in [10], 3.52 µM and 8.63 µM. The TGI is > 65 µM and 58.8 µM in experiment [1]; over 100 µM in [2]; over 100 µM in [3]; 31.9 µM and 40.8 µM in experiment [4]; 42.7 µM and 48.9 µM in [5]; 30.9 µM and 46.3 µM in experiment [6]. For the same compound, the TGI in [7] was 22 µM and 27.3 µM; in experiment [8], 29.8 µM and 44.6 µM; in experiment [9], 25.2 µM and 17.6 µM; in [10] it was 19 µM and 27 µM.
Consider `Nc1nc(N)c2c(ccc3c2ccn3Cc2cccc([N+](=O)[O-])c2)n1`, for which the GI50 in experiment [1] was 1.1 µM and 0.15 µM; in experiment [2] it was 0.00918 µM and 0.0476 µM; in experiment [3], 0.00865 µM; in experiment [4], 0.272 µM; in [5], 0.0504 µM; in experiment [6], 0.00901 µM. Moreover, the GI50 in [7] was 0.0454 µM; in experiment [8] it was 0.0615 µM; in experiment [9], 0.739 µM; in experiment [10], 0.043 µM. Further, the TGI in experiment [1] was 4.08 µM and 1.79 µM; in experiment [2], 2.5 µM; in experiment [3], 1.77 µM; in experiment [4], 2.42 µM; in experiment [5], 2.36 µM; in experiment [6], 1.7 µM. The TGI in experiment [7] was determined as 1.64 µM; in experiment [8] it was 1.65 µM; in experiment [9], 3.05 µM; in [10], 0.806 µM.
Turning to `CC1Cc2c(Cl)ncnc2N(C)c2ccccc21` (centres undefined), the GI50 in experiment [1] was 1.77 µM; in experiment [2], 3.39 µM; in experiment [3], 2.77 µM; in experiment [4], 2.05 µM; in [5], 6.02 µM; in [6], 3.42 µM. Moreover, the GI50 in [7] is 4.56 µM; in experiment [8], 3.4 µM; in experiment [9] it was 4.29 µM; in experiment [10], 3.37 µM. The TGI in [1] is 3.41 µM; in experiment [2], 15 µM; in experiment [3], 17.3 µM; in [4], 21.7 µM; in experiment [5], over 100 µM; in [6] it was 27.3 µM. Further, the TGI stood at 37.2 µM in [7], 15.5 µM in experiment [8], 37.4 µM in experiment [9] and 89.1 µM in experiment [10].
On to `O=C1/C=C/[C@@H](O)[C@@H]2C[C@@H](O)C[C@H]2/C=C/CCC[C@H](CCO)O1`, for which the GI50 in experiment [1] is 0.104 µM; in [2] it was 0.315 µM; in experiment [3], 0.155 µM; in [4], 0.0684 µM; in [5], 0.396 µM; in [6] it was 0.153 µM. Further, the GI50 in experiment [7] was 0.469 µM; in experiment [8], 0.314 µM; in experiment [9], 0.239 µM; in experiment [10], 0.22 µM. In addition, the TGI was 0.241 µM in experiment [1]; 1.16 µM in [2]; over 100 µM in [3]; 0.287 µM in [4]; over 100 µM in experiment [5]; over 100 µM in experiment [7]. In addition, the results for the TGI in experiment [8], in experiment [9] and in [10] were over 80.9 µM, 0.804 µM and over 100 µM, respectively.
As to `O=C1C2=C(C(=O)c3ccccc31)C(O)(S(=O)(=O)O)C(O)(S(=O)(=O)O)C1N=CC=CC21` (centres undefined), the GI50 in experiment [1] is 7.08 µM and 4.11 µM; in [2], 7.83 µM and 4.13 µM; in experiment [3], 4.83 µM and 3.2 µM; in experiment [4] it was 9.22 µM and 11.9 µM; in [5] it was 8.7 µM and 9.31 µM; in [6], 3.46 µM and 4.23 µM. The GI50 in experiment [7] was 4.01 µM and 3.89 µM; in experiment [8], 4.84 µM and 3.25 µM; in experiment [9], 3.97 µM and 4.7 µM; in [10], 2.46 µM and 2.19 µM. The TGI in experiment [1] is 29.9 µM and 61.5 µM; in [2], > 100 µM and 20.6 µM; in [3], 32.1 µM and 29.4 µM; in experiment [4] it was 69.2 µM and 27.7 µM; in experiment [5] it was > 100 µM and 45.7 µM; in experiment [6], > 100 µM and 18.6 µM. For the same compound, the TGI was 19.9 µM and 18.1 µM in [7]; > 100 µM and 14.1 µM in [8]; 28.5 µM and 30.7 µM in experiment [9]; 27 µM and 13 µM in experiment [10].
As for `Clc1cnc(Nc2ccc(OCCN3CCCC3)cc2)nc1NCc1ccco1`, the GI50 is 1.71 µM in experiment [1]; 1.03 µM in experiment [2]; 2.46 µM in [3]; 0.671 µM in [4]; 1.95 µM in [5]; 3.54 µM in [6]. In addition, the GI50 in experiment [7] is 1.67 µM; in experiment [8] it was 2.42 µM; in experiment [9] it was 3.14 µM; in experiment [10], 1.87 µM. Moreover, the TGI in experiment [1] was 4.05 µM; in experiment [2] it was 5.01 µM; in experiment [3], 9.55 µM; in [4], 11.3 µM; in experiment [5], over 100 µM; in [6], 13.7 µM. Besides, the TGI stood at 3.64 µM in experiment [7], 10.6 µM in experiment [8], 10.6 µM in [9] and 11.6 µM in experiment [10].
On to `Cc1nnc(N/N=C/c2ccc([N+](=O)[O-])o2)[nH]c1=O`, for which the GI50 was 2.53 µM in experiment [1]; 2.5 µM in experiment [2]; 2.89 µM in experiment [3]; 1.46 µM in experiment [4]; 2.98 µM in [5]; 0.785 µM in experiment [6]. Further, the GI50 was 0.447 µM in experiment [7], 0.589 µM in experiment [8], 1.07 µM in experiment [9] and 0.931 µM in experiment [10]. Moreover, the TGI in experiment [1] was over 100 µM; in [2] it was over 100 µM; in [3], over 100 µM; in experiment [4] it was 25.4 µM; in experiment [5], over 100 µM; in experiment [6], over 100 µM. Moreover, the TGI was over 51.6 µM in experiment [7], 22.5 µM in experiment [8], 13.8 µM in [9] and 10.8 µM in experiment [10].
Regarding `CCC(=O)NC1=C(Cl)C(=O)C(NC(=O)CC)=C(Cl)C1=O`, the GI50 is 5.97 µM in experiment [1]; 2.42 µM in experiment [2]; 15.2 µM in [3]; over 45.6 µM in experiment [4]; 20.6 µM in [5]; 37.4 µM in experiment [6]. In addition, the GI50 is over 44.4 µM in [7], 17.7 µM in experiment [8], 5.51 µM in [9] and 5.97 µM in experiment [10]. In addition, the TGI in experiment [1] is 10.8 µM; in experiment [2] it was over 23.7 µM; in [3], 29.9 µM; in experiment [4] it was over 62.1 µM; in experiment [5], 40.5 µM; in [6] it was over 60.6 µM. For the same compound, the TGI is over 58.2 µM in experiment [7], 31.9 µM in experiment [8], 14.2 µM in experiment [9] and 11.4 µM in [10].
On to `COc1cc2ncnc(Oc3ccc(NC(=O)Nc4ccc(CN5CCOCC5)c(C(F)(F)F)c4)c4ccccc34)c2cc1OC`, for which the GI50 in experiment [1] is 0.558 µM; in [2], 0.502 µM; in experiment [3], 0.935 µM; in experiment [4] it was 0.264 µM; in experiment [5] it was 1.15 µM; in [6], 0.537 µM. Besides, the GI50 in [7] is 1.36 µM; in experiment [8], 0.292 µM; in [9] it was 0.477 µM; in experiment [10], 0.189 µM. Further, the TGI in experiment [1] stood at 3.91 µM; in [2], 2.76 µM; in experiment [3], 4.14 µM; in experiment [4], 16 µM; in [5], 6.95 µM; in experiment [6], 6.53 µM. Moreover, the TGI in experiment [7] amounted to 16.1 µM; in experiment [8], 1.71 µM; in experiment [9], 5.17 µM; in experiment [10], 2.98 µM.
In the case of `OC(c1cc(C(F)(F)F)nc2c(Cl)cc(Cl)cc12)C1CCCCN1` (centres undefined), the TGI in experiment [1] was 9.29 µM; in experiment [2], 17.7 µM; in experiment [3] it was over 44 µM; in [4], 35.1 µM; in experiment [5], over 50.4 µM; in [6], 32.5 µM. For the same compound, the TGI in experiment [7] is 29.9 µM; in [8] it was over 39.6 µM; in experiment [9] it was 19 µM; in experiment [10], 3.22 µM.
For the compound `CCN1CCN(C(=O)[C@]23CC[C@@H](C)[C@H](C)[C@@H]2C2=CC[C@@H]4[C@@]5(C)CCC(=O)C(C)(C)[C@@H]5CC[C@@]4(C)[C@]2(C)CC3)CC1`, the GI50 is 1.02 µM in [1]; 0.98 µM in experiment [2]; 0.794 µM in experiment [3]; 1.78 µM in experiment [4]; 0.907 µM in experiment [5]; 1.1 µM in [6]. In addition, the GI50 is 0.843 µM in experiment [7], 0.776 µM in experiment [8], 1.33 µM in experiment [9] and 0.726 µM in experiment [10]. For the same compound, the TGI in [1] came out at 2.37 µM; in experiment [2], 2.18 µM; in experiment [3] it was 1.61 µM; in [4] it was 7.01 µM; in experiment [5], 1.87 µM; in experiment [6] it was 2.89 µM. For the same compound, the TGI in experiment [7] came to 1.54 µM; in experiment [8], 1.48 µM; in [9], 3.89 µM; in experiment [10], 1.42 µM.
